According to PMC5298231, “The Malaria Parasite's Lactate Transporter PfFNT Is the Target of Antiplasmodial Compounds Identified in Whole Cell Phenotypic Screens” (PLoS Pathogens, 2017):
Like-named read-outs stand apart in the source and are kept apart here.

System: erythrocytes infected with 3D7 trophozoites
Assay type: cell-based, Plasmodium falciparum
Conditions: for Folate level, Log2 (treated vs control) / Geranylgeranyl pyrophosphate level, Log2 (treated vs control): sheet Log2; for Folate level, Log2 (treated vs control): medMz 440.132; for Geranylgeranyl pyrophosphate level, Log2 (treated vs control): medMz 449.186; for Ratio, Farnesyl diphosphate: metabolite Farnesyl diphosphate (medMz 381.123); for Ratio, Folate: metabolite Folate (medMz 440.132); for Ratio, Geranylgeranyl pyrophosphate: metabolite Geranylgeranyl pyrophosphate (medMz 449.186)

## COc1ccc2c(c1)OC(O)(C(F)(F)C(F)(F)F)CC2=O (stereo not shown) [MMV007839]
Av 6hr, 6 μM
  NADH log2 ratio (+MMV007839/-MMV007839): -2.783
  NADP+ log2 ratio (+MMV007839/-MMV007839): -0.3285
  Octoluse Bisphosphate log2 ratio (+MMV007839/-MMV007839): 0.9087
  Ornithine log2 ratio (+MMV007839/-MMV007839): -0.4177
  Orotate log2 ratio (+MMV007839/-MMV007839): -1.6355
  Orotidine 5-phosphate log2 ratio (+MMV007839/-MMV007839): -1.249
  Orotidine log2 ratio (+MMV007839/-MMV007839): -0.6749
  PAEF log2 ratio (+MMV007839/-MMV007839): 0.8061
  PAVH log2 ratio (+MMV007839/-MMV007839): -0.07734
  PD log2 ratio (+MMV007839/-MMV007839): 1.197
  PDAV log2 ratio (+MMV007839/-MMV007839): 1.2
  PE log2 ratio (+MMV007839/-MMV007839): 1.699
  PEE log2 ratio (+MMV007839/-MMV007839): 1.042
  PHF log2 ratio (+MMV007839/-MMV007839): 0.9826
  PPVQ log2 ratio (+MMV007839/-MMV007839): -0.2514
  PVNF log2 ratio (+MMV007839/-MMV007839): 0.6194
  PVQ log2 ratio (+MMV007839/-MMV007839): 1.502
  PVQA log2 ratio (+MMV007839/-MMV007839): -0.1116
  Pantothenate log2 ratio (+MMV007839/-MMV007839): -0.4384
  Phenylalanine log2 ratio (+MMV007839/-MMV007839): 0.1437
  Phosphoenolpyruvate log2 ratio (+MMV007839/-MMV007839): 0.09862
  Pipecolate log2 ratio (+MMV007839/-MMV007839): 1.035
  Proline log2 ratio (+MMV007839/-MMV007839): 0.2232
  Pyridoxine log2 ratio (+MMV007839/-MMV007839): 0.219
  Pyruvate log2 ratio (+MMV007839/-MMV007839): 2.1785
  Ribose-5-phosphate log2 ratio (+MMV007839/-MMV007839): 0.5462
  S-Adenosyl-L-homocysteine log2 ratio (+MMV007839/-MMV007839): -0.1116
  SDGLA log2 ratio (+MMV007839/-MMV007839): -0.7918
  SFGD log2 ratio (+MMV007839/-MMV007839): -0.1482
  Sedoheptoluse bisphosphate log2 ratio (+MMV007839/-MMV007839): -0.5568
  Sedoheptulose-1/7-phosphate log2 ratio (+MMV007839/-MMV007839): 0.1885
  Serine log2 ratio (+MMV007839/-MMV007839): 0.02139
  Succinate log2 ratio (+MMV007839/-MMV007839): 0.1816
  Succinate semialdehyde log2 ratio (+MMV007839/-MMV007839): -0.438
  TNVK log2 ratio (+MMV007839/-MMV007839): -0.1213
  Threonine log2 ratio (+MMV007839/-MMV007839): 0.6908
  Tryptophan log2 ratio (+MMV007839/-MMV007839): -0.04867
  Tyrosine log2 ratio (+MMV007839/-MMV007839): 0.1841
  UDP log2 ratio (+MMV007839/-MMV007839): -0.5016
  UDP-N-acetyl-D-glucosamine log2 ratio (+MMV007839/-MMV007839): -0.184
  UDP-glucose log2 ratio (+MMV007839/-MMV007839): 0.0071
  UMP log2 ratio (+MMV007839/-MMV007839): -0.08541
  Uracil log2 ratio (+MMV007839/-MMV007839): -0.6376
  Uric Acid log2 ratio (+MMV007839/-MMV007839): -0.1851
  VD log2 ratio (+MMV007839/-MMV007839): 1.833
  Valine log2 ratio (+MMV007839/-MMV007839): 0.1675
  Xanthine log2 ratio (+MMV007839/-MMV007839): -0.5471
  dADP log2 ratio (+MMV007839/-MMV007839): -0.4329
  dATP log2 ratio (+MMV007839/-MMV007839): 0.01926
  dCDP log2 ratio (+MMV007839/-MMV007839): 0.5589
  dGMP log2 ratio (+MMV007839/-MMV007839): -0.355
  dTMP log2 ratio (+MMV007839/-MMV007839): 0.4667
  dTTP log2 ratio (+MMV007839/-MMV007839): 0.06317
  dUMP log2 ratio (+MMV007839/-MMV007839): 1.053
  myo-Inositol log2 ratio (+MMV007839/-MMV007839): -0.254
  sn-Glycerol 3-phosphate log2 ratio (+MMV007839/-MMV007839): 1.275
  sn-glycero-3-Phospho-1-inositol log2 ratio (+MMV007839/-MMV007839): 0.1242
Av 6hr, 6 μM, medRt 15.0954
  Hexose-phosphate log2 ratio (+MMV007839/-MMV007839): -0.2639
Av 6hr, 6 μM, medRt 16.8944
  6-Phospho-D-gluconate log2 ratio (+MMV007839/-MMV007839): -0.736
Av 6hr, 6 μM, medRt 17.0788
  Hexose-phosphate log2 ratio (+MMV007839/-MMV007839): -1.183
Av 6hr, 6 μM, medRt 17.4636
  6-Phospho-D-gluconate log2 ratio (+MMV007839/-MMV007839): -0.3794
Exp1, 1hr
  Folate level, Log2 (treated vs control): -0.2263
  Geranylgeranyl pyrophosphate level, Log2 (treated vs control): -0.6569
Exp1, 3hr
  Folate level, Log2 (treated vs control): -0.3477
  Geranylgeranyl pyrophosphate level, Log2 (treated vs control): -0.8295
Exp1, 6hr
  Folate level, Log2 (treated vs control): -0.6125
  Geranylgeranyl pyrophosphate level, Log2 (treated vs control): -0.9068
Exp2, 1hr
  Folate level, Log2 (treated vs control): -0.1779
  Geranylgeranyl pyrophosphate level, Log2 (treated vs control): -0.5207
Exp2, 3hr
  Folate level, Log2 (treated vs control): -0.4245
  Geranylgeranyl pyrophosphate level, Log2 (treated vs control): -0.4872
Exp2, 6hr
  Folate level, Log2 (treated vs control): -0.3923
  Geranylgeranyl pyrophosphate level, Log2 (treated vs control): -0.5435
Exp3, 1hr
  Folate level, Log2 (treated vs control): -0.2907
  Geranylgeranyl pyrophosphate level, Log2 (treated vs control): -0.5583
Exp3, 3hr
  Folate level, Log2 (treated vs control): -0.3083
  Geranylgeranyl pyrophosphate level, Log2 (treated vs control): -0.7313
Exp3, 6hr
  Folate level, Log2 (treated vs control): -0.4777
  Geranylgeranyl pyrophosphate level, Log2 (treated vs control): -0.686
Exp1_1hr
  Ratio, Farnesyl diphosphate: 1.012
  Ratio, Folate: 0.8548
  Ratio, Geranylgeranyl pyrophosphate: 0.6342
Exp1_3hr
  Ratio, Farnesyl diphosphate: 0.9128
  Ratio, Folate: 0.7858
  Ratio, Geranylgeranyl pyrophosphate: 0.5627
Exp1_6hr
  Ratio, Farnesyl diphosphate: 0.7497
  Ratio, Folate: 0.6541
  Ratio, Geranylgeranyl pyrophosphate: 0.5334
Exp2_1hr
  Ratio, Farnesyl diphosphate: 1.018
  Ratio, Folate: 0.884
  Ratio, Geranylgeranyl pyrophosphate: 0.697
Exp2_3hr
  Ratio, Farnesyl diphosphate: 1.006
  Ratio, Folate: 0.7451
  Ratio, Geranylgeranyl pyrophosphate: 0.7134
Exp2_6hr
  Ratio, Farnesyl diphosphate: 0.9903
  Ratio, Folate: 0.7619
  Ratio, Geranylgeranyl pyrophosphate: 0.6861
Exp3_1hr
  Ratio, Farnesyl diphosphate: 0.9698
  Ratio, Folate: 0.8175
  Ratio, Geranylgeranyl pyrophosphate: 0.6791
Exp3_3hr
  Ratio, Farnesyl diphosphate: 1
  Ratio, Folate: 0.8076
  Ratio, Geranylgeranyl pyrophosphate: 0.6023
Exp3_6hr
  Ratio, Farnesyl diphosphate: 0.7551
  Ratio, Folate: 0.7181
  Ratio, Geranylgeranyl pyrophosphate: 0.6216
